One assay deals with HPK1 kinase (Homo sapiens (Human), UniProt Q92918). The assay can be described thus: Assay for in vitro inhibitory activity against HPK1 kinase. Type of assay: biochemical. The conditions noted are these: HPK1 1 ng/μL, ATP 1 mM, STK Substrate 1-biotin 500 nM. The procedure: Experimental Example 1: Assay for In Vitro Inhibitory Activity Against HPK1 Kinase A kinase buffer (Enzymatic buffer 5×) was diluted to 1×, and 10 mM MgCl2, 1 mM DTT, and 0.005% Tween 20 were added. A 100 ng/μL HPK1 (Life technology) stock solution was diluted with the kinase buffer to obtain a 1.67×, 1.67 ng/μL working solution (final concentration: 1 ng/μL), and the working solution was seeded in a 384-well plate at 6 μL/well. Different compounds dissolved in DMSO were added to the wells using a nanoliter pipettor to obtain final concentrations of the compounds of 1000 nM to 0.244 nM (4-fold serial dilution, 7 concentrations in total), and blank control wells (without enzyme) and negative control wells (with enzyme, plus vehicle DMSO) were set; the wells were set in duplicate. After the enzyme and the compounds were incubated at room temperature for 1 h, a 5×, 5 mM ATP dilution (final concentration: 1 mM) in the kinase buffer was mixed with a 5×, […] substrate (Cisbio, STK Substrate 1-biotin; final concentration: 500 nM) in equal volume, and the mixture was added to the plate at 4 µL/well. The plate was sealed with a film and then incubated at room temperature for 2 h. An assay antibody solution was prepared by mixing the antibody STK Antibody-cryptate (Cisbio, 5 μL/test) and a 4×, 500 nM Streptavidin-XL665 (Cisbio; final concentration: 125 nM) in equal volume and added to the plate at 10 μL/well. The plate was incubated at room temperature for 1 h. The signal values (excitation: […]) were measured using a PE Envision multimode microplate reader, and IC50 was calculated by four-parameter fitting.
Sequence of HPK1 kinase (Q92918 whole entry): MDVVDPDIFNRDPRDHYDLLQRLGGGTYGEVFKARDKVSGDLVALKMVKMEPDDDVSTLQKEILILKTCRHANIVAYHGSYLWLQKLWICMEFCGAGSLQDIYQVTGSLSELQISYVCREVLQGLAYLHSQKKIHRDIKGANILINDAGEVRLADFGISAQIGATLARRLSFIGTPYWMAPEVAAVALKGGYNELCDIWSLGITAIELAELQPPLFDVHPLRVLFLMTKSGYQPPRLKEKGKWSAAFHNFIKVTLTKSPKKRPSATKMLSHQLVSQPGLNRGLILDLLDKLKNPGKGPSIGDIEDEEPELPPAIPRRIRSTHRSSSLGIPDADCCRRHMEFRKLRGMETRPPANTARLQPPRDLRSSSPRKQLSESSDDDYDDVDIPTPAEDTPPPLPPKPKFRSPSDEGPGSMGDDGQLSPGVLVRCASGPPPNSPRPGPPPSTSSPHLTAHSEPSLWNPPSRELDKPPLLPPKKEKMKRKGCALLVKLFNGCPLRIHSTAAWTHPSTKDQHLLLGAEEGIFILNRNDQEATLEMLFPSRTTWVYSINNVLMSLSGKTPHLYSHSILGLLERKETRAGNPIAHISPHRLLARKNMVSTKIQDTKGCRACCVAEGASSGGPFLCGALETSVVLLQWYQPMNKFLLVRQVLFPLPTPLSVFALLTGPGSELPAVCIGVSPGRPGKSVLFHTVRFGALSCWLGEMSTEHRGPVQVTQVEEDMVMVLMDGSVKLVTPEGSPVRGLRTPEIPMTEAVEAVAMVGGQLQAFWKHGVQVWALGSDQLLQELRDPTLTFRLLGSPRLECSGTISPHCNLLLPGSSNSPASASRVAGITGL

Assay [1] relates to p-SLP76 phosphorylation of Jurkat cells. The assay can be described thus: Assay for inhibitory activity against p-SLP76 phosphorylation of Jurkat cells. Type of assay: cell-based. The conditions noted are these: stimulator CD3CD28, 30 min, read-out: IC50 (nM) for inhibition of p-SLP76 phosphorylation of Jurkat cells. The procedure: 2.1 Assay for Inhibitory Activity Against p-SLP76 Phosphorylation of Jurkat Cells
Jurkat cells in a good growth state were added to a centrifuge tube, centrifuged, and resuspended. The cell density was adjusted to 6.25×10^6 cells/mL, and the cells were seeded in a 384-well small-volume white plate at […]. Different compounds dissolved in DMSO were added to the wells using a nanoliter pipettor to obtain final concentrations of the compounds of 2500 nM to 10.29 nM, and a control was set; the wells were set in duplicate. After 1 h of cell culture, the stimulator CD3CD28 (manufacturer: stemcell, 4 μL) was added and the cells were incubated at 37° C. for 30 min. 3 μL of lysis buffer (manufacturer: BioAuxilium) was added to each well, and the plate was shaken at room temperature for 30 min. After the lysate was well mixed, 5 μL of pre-mixed antibody (manufacturer: BioAuxilium) in assay buffer was added and the plate was incubated overnight at room temperature. The signal values were measured on a PerkinElmer Envision multimode microplate reader (excitation: 320 nm, emission: 615 nm/665 nm), and IC50 was calculated by four-parameter filling.

Read-outs that look alike come from different tables or passages of the source. Some results are limits rather than exact numbers.

With `CN(C)Cc1nc(Nc2cnc(-c3ccnc4c3c3c(n4C)CCC3)c3c2C(=O)NC3)ccc1C1CCOCC1` [Compound I-6], the IC50 on HPK1 kinase was 2.5 nM; in assay [1] (Homo sapiens, 0.5 h) it was < 50 nM.
`CN(C)Cc1nc(Nc2ccc(-c3ccnc4c3c3c(n4C)CCC3)c3c2C(=O)NC3)ccc1C1CCOC1` (centres unmarked) [Compound I-8]: the IC50 against HPK1 kinase was 3.1 nM; in assay [1] (Homo sapiens, 0.5 h), < 50 nM.
Consider `CN(C)Cc1nc(Nc2cnc(-c3ccnc4c3c3c(n4C)CCC3)c3c2C(=O)NC3)ccc1C1(O)CCOCC1` [Compound I-10], for which the IC50 at HPK1 kinase is 5.6 nM; in assay [1] (Homo sapiens, 0.5 h), 50 to 100 nM.
`CN(C)Cc1nc(Nc2ccc(-c3cnn4ccc5ccoc5c34)c3c2C(=O)NC3)ccc1C1CCOCC1` [Compound I-11] registered an IC50 on HPK1 kinase of 1.6 nM.
In turn, `CN(C)Cc1nc(Nc2ccc(-c3ccnc4c3c3c(n4C)CCC3)c3c2C(=O)NC3)ccc1N1CC[C@@H](O)C1` [Compound I-12] came in with an IC50 against HPK1 kinase of 5.1 nM.
Same read-out and setting: the result for `CN(C)Cc1nc(Nc2cnc(-c3ccnc4c3c3c(n4C)CCC3)c3c2C(=O)NC3)ccc1N1CCOCC1` [Compound I-13] reads 3.5 nM; that for `[2H]C([2H])([2H])N(Cc1nc(Nc2cnc(-c3ccnc4c3c3c(n4C)CCC3)c3c2C(=O)NC3)ccc1C1CCOCC1)C([2H])([2H])[2H]` [Compound I-14], 1.4 nM.
In the case of `[2H]C([2H])(c1nc(Nc2cnc(-c3ccnc4c3c3c(n4C)CCC3)c3c2C(=O)NC3)ccc1C1CCOCC1)N(C)C` [Compound I-17], the IC50 in assay [1] (Homo sapiens, 0.5 h) is < 50 nM.
Take `CN(C)Cc1nc(Nc2ccc(-c3nnc4ccc5c(n34)CCC5)c3c2C(=O)NC3)ccc1C1CCOCC1` [Compound I-18]: at HPK1 kinase, the IC50 is 9.8 nM.
On the same count and under the same terms, then `CN(C)Cc1nc(Nc2ccc(-c3ncnc4c3c3c(n4C)CCC3)c3c2C(=O)NC3)ccc1C1CCOCC1` [Compound I-20], with 3.2 nM.
Consider `CN(C)Cc1nc(Nc2ccc(-c3ncnc4[nH]c5ccccc5c34)c3c2C(=O)NC3)ccc1C1CCOCC1` [Compound I-22], for which the IC50 against HPK1 kinase is 7.5 nM; in assay [1], 50 to 100 nM.
`CN(C)Cc1nc(Nc2ccc(-c3ncnc4[nH]c5c(c34)CCC5)c3c2C(=O)NC3)ccc1C1CCOCC1` [Compound I-24]: in assay [1] (Homo sapiens, 0.5 h), the IC50 was 50 to 100 nM.
As to `CN(C)Cc1nc(Nc2ccc(-c3nnc4cc5c(nn34)CCC5)c3c2C(=O)NC3)ccc1C1CCOCC1` [Compound I-26], at HPK1 kinase, the IC50 worked out at 16 nM.
`CN(C)Cc1nc(Nc2ccc(-c3nnc4cc5c(cn34)CCC5)c3c2C(=O)NC3)ccc1C1CCOCC1` [Compound I-27] gave an IC50 at HPK1 kinase of 23 nM.
For the compound `CN(C)Cc1nc(Nc2ccc(-c3cnc4ccc5occc5n34)c3c2C(=O)NC3)ccc1C1CCOCC1` [Compound I-28], the IC50 against HPK1 kinase was 2 nM; in assay [1] (Homo sapiens, 0.5 h), < 50 nM.
For `CN(C)Cc1nc(Nc2ccc(-c3cnn4cc5c(nc34)CCC5)c3c2C(=O)NC3)ccc1C1CCOCC1` [Compound I-30], the IC50 at HPK1 kinase is 3.6 nM; in assay [1], 50 to 100 nM.
With `CN(C)Cc1nc(Nc2ccc(-c3cnc4ccc5c(ccn5C)n34)c3c2C(=O)NC3)ccc1C1CCOCC1` [Compound I-32], the IC50 against HPK1 kinase is 4.4 nM; in assay [1] it was < 50 nM.
Turning to `CN(C)Cc1nc(Nc2ccc(-c3nnc4ccc5occc5n34)c3c2C(=O)NC3)ccc1C1CCOCC1` [Compound I-33], the IC50 against HPK1 kinase was 2.9 nM; in assay [1], < 50 nM.
As for `CN(C)Cc1nc(Nc2ccc(-c3cnn4c3CC3(CC3)C4)c3c2C(=O)NC3)ccc1C1CCOCC1` [Compound I-34], the IC50 in assay [1] (Homo sapiens, 0.5 h) was < 50 nM.
As to `CN(C)Cc1nc(Nc2ccc(-c3cnc4ccc5c(n34)CCO5)c3c2C(=O)NC3)ccc1C1CCOCC1` [Compound I-35], the IC50 in assay [1] (Homo sapiens, 0.5 h) lay within 50 to 100 nM.
Consider `CN(C)Cc1nc(Nc2ccc(-c3nnc4ccc5c(n34)OCC5)c3c2C(=O)NC3)ccc1C1CCOCC1` [Compound I-36], for which the half-maximal inhibitory concentration (IC50) on HPK1 kinase was 5.3 nM; in assay [1], 50 to 100 nM.
With `CN(C)Cc1nc(Nc2ccc(-c3cnn4ccc5occc5c34)c3c2C(=O)NC3)ccc1C1CCOCC1` [Compound I-38], the IC50 in assay [1] (Homo sapiens, 0.5 h) was < 50 nM.
At HPK1 kinase, `CN(C)Cc1nc(Nc2cnc(-c3cnc4ccc5sccc5n34)c3c2C(=O)NC3)ccc1C1CCOCC1` [Compound I-41] registered an IC50 of 18 nM.
On to `CN(C)Cc1nc(Nc2ccc(-c3cnc4n3C3CC3C4)c3c2C(=O)NC3)ccc1C1CCOCC1` (centres unmarked) [Compound I-43], for which inhibition against HPK1 kinase was half-maximal at 16 nM (IC50).
With `CN(C)Cc1nc(Nc2ccc(-c3cnc4ccc5c(n34)OCC5)c3c2C(=O)NC3)ccc1C1CCOCC1` [Compound I-44], the IC50 was 3.5 nM against HPK1 kinase and < 50 nM in assay [1] (Homo sapiens, 0.5 h).
For `CN(C)Cc1nc(Nc2ccc(-c3cnc4ccc5occc5n34)c3c2C(=O)NC3)ccc1C1(O)CCOCC1` [Compound I-45] the same measures were 3.4 nM and < 50 nM.
Regarding `CN(C)Cc1nc(Nc2cnc(-c3cnn4ccc5occc5c34)c3c2C(=O)NC3)ccc1C1CCOCC1` [Compound I-46], in assay [1] (Homo sapiens, 0.5 h), the IC50 is < 50 nM.
With `CN(C)Cc1nc(Nc2cnc(-c3cnn4ccc5occc5c34)c3c2C(=O)NC3)ccc1N1CCOCC1` [Compound I-47], the IC50 in assay [1] (Homo sapiens, 0.5 h) was < 50 nM.
As for `CN(C)Cc1nc(Nc2ccc(-c3cnc4cnc5occc5n34)c3c2C(=O)NC3)ccc1C1CCOCC1` [Compound I-48], in assay [1] (Homo sapiens, 0.5 h), the IC50 was < 50 nM.
For `CN(C)Cc1nc(Nc2ccc(-c3cnn4ccc5occc5c34)c3c2C(=O)NC3)ccc1N1CCN(C)C1=O` [Compound I-49], the results for the IC50 (against HPK1 kinase; in assay [1]) were 6.1 nM and < 50 nM, respectively.
For `CN(C)Cc1nc(Nc2ccc(-c3cnn4ccc5occc5c34)c3c2C(=O)NC3)ccc1N1CCCC1=O` [Compound I-51] the same measures were 5.8 nM and < 50 nM.
For `CN(C)Cc1nc(Nc2ccc(-c3cnc4ccc5occc5n34)c3c2C(=O)NC3)ccc1N1CCCC1=O` [Compound I-52], the IC50 in assay [1] (Homo sapiens, 0.5 h) was < 50 nM.
For `[2H]C([2H])(c1nc(Nc2ccc(-c3cnn4c3CC3(CC3)C4)c3c2C(=O)NC3)ccc1C1CCOCC1)N(C)C` [Compound I-53], the IC50 in assay [1] (Homo sapiens, 0.5 h) is < 50 nM.
Same read-out and setting: the result for `CN(C)Cc1nc(Nc2ccc(-c3cnc4cnc5occc5n34)c3c2C(=O)NC3)ccc1C1CCOC1` (centres unmarked) [Compound I-54] reads < 50 nM.
For the compound `CN(C)Cc1nc(Nc2ccc(-c3cnn4ccc5occc5c34)c3c2C(=O)NC3)ccc1C1CC(=O)N(C)C1` (centres unmarked) [Compound I-59], the IC50 in assay [1] (Homo sapiens, 0.5 h) was < 50 nM.
Take `CN(C)Cc1nc(Nc2ccc(-c3cnc4cnc5occc5n34)c3c2C(=O)NC3)ccc1C1CCN(C)C(=O)C1` (centres unmarked) [Compound I-61]: in assay [1] (Homo sapiens, 0.5 h), the IC50 fell in the range of 50 to 100 nM.
The same measure, in the same setting: the result for `CN(C)Cc1nc(Nc2ccc(-c3cnn4ccc5occc5c34)c3c2C(=O)NC3)ccc1C1CCCO1` (centres unmarked) [Compound I-64] reads < 50 nM; that for `CN(C)Cc1nc(Nc2ccc(-c3cnc4ccc5occc5n34)c3c2C(=O)NC3)ccc1C1CCN(C)C(=O)C1` (centres unmarked) [Compound I-66], < 50 nM.
For the compound `CN(C)Cc1nc(Nc2ccc(-c3cnn4c3CC3(CC3)C4)c3c2C(=O)NC3)ccc1C1CCN(C)C(=O)C1` (centres unmarked) [Compound I-67], the IC50 in assay [1] (Homo sapiens, 0.5 h) was < 50 nM.
Compound `CN(C)Cc1nc(Nc2ccc(-c3cnc4cnc5occc5n34)c3c2C(=O)NC3)ccc1[C@@H]1CCN(C)C(=O)C1` [Compound I-68] gave an IC50 at HPK1 kinase of 7.7 nM.
`CC(=O)N(C)c1ccc(Nc2ccc(-c3cnn4ccc5occc5c34)c3c2C(=O)NC3)nc1CN(C)C` [Compound I-70]: in assay [1] (Homo sapiens, 0.5 h), the IC50 is < 50 nM.
As for `CN(C)Cc1nc(Nc2ccc(-c3cnn4ccc5occc5c34)c3c2C(=O)NC3)ccc1N1CCN(C)C(=O)C1` [Compound I-76], the IC50 in assay [1] (Homo sapiens, 0.5 h) was < 50 nM.
Turning to `CN(C)Cc1nc(Nc2ccc(-c3cnc4cnc5occc5n34)c3c2C(=O)NC3)ccc1C1CCN(C)CC1` [Compound I-80], the IC50 in assay [1] (Homo sapiens, 0.5 h) was < 50 nM.
In the case of `CN(C)Cc1nc(Nc2ccc(-c3cnn4ccc5occc5c34)c3c2C(=O)NC3)ccc1-c1ccn(C)c(=O)c1` [Compound I-81], in assay [1] (Homo sapiens, 0.5 h), the IC50 is < 50 nM.
The compound `CN(C)Cc1nc(Nc2ccc(-c3ccnc4c3cc3n4CCC3)c3c2C(=O)NC3)ccc1C1CCN(C)C(=O)C1` (centres unmarked) [Compound I-82] gave an IC50 against HPK1 kinase of 3 nM.
In the case of `CNCc1nc(Nc2ccc(-c3cnn4ccc5occc5c34)c3c2C(=O)NC3)sc1C1CCOCC1` [Compound I-85], the IC50 in assay [1] (Homo sapiens, 0.5 h) was < 50 nM.
